Results from patent US20240316059A1, “PEPTIDE DRUG CONJUGATES” (Oncopeptides AB, priority 2021, published 2024).
Read-outs that look alike come from different tables or passages of the source.

Assays:
DOHH-2 = test: In vitro cytotoxicity, DOHH-2 (B Cell Lymphoma); type: cell-based; conditions: Homo sapiens, read-out: Cytotoxicity IC50, DOHH-2
Experimental: (§1) All cells were cultivated in RPMI medium 1640 (IX). All media was supplemented with 10 μg/μl penicillin/streptomycin, 10% heat inactivated FBS, 0.1 mM Sodium Pyruvate, 1×MEM NEAA (ThermoFisher) and 1 mM HEPES. The DERL-2 cells had higher FBS (20%) and 40 ng/mL IL-2 was added. hPBMCs were thawed and allowed to acclimatise overnight and then stimulated with 10 μg/mL PHA-M and 40 ng/mL IL-2 for 4 hours before being exposed to test compounds. All cells, except for hPBMCs, were grown to reach log phase before being exposed to the test compounds.
(§2) Test compounds were dissolved in 100% DMSO and added to a 384 assay plate. Additional DMSO was added to maintain the same final DMSO concentration (0.2%) in all wells. 25 μL cell suspension with a concentration of 100000 cells/mL was added to each well. The cells were cultured in a CO2 incubator at 37° C. for 72 h. Plates were equilibrated to room temperature for 30 minutes before adding 20 μL CellTiter-Glo® 2.0 (Promega) reagent to all wells. The plate was then allowed to stabilize for 20 minutes before recording the luminescence (Em filter 700 nm) in an Envision plate reader.

MM.1S cells = test: In vitro cytotoxic potency in MM.1S cell viability assay (CellTiter-Glo); type: cell-based, human; conditions: Homo sapiens, MM1.S, 72 h
Experimental: Methods: MM.1S Cells were cultivated in RPMI medium 1640 (IX) supplemented with 10 μg/μL penicillin/streptomycin, 10% heat inactivated FBS, 0.1 mM Sodium Pyruvate, 1×MEM NEAA (ThermoFisher) and 1 mM HEPES. Cells were grown to reach log phase before being exposed to the test compounds.
as §2, with “compounds (Example compounds 1 to 36, 38 to 41 and 45 to 48) and comparative compounds (bendamustine, busulfan, melphalan, chlorambucil and 4-hydroperoxy cyclophosphamide)” for “compounds”, “(emission” for “(Em”
as §1, §2

SU-DHL-8 = test: In vitro cytotoxicity, SU-DHL-8 (B-cell non-Hodgkin Lymphoma); type: cell-based; conditions: Homo sapiens, read-out: Cytotoxicity IC50, SU-DHL-8
Experimental: as §1, §2

HG-3 = test: In vitro cytotoxicity, HG-3 (Chronic Lymphocytic Leukemia); type: cell-based; conditions: Homo sapiens, read-out: Cytotoxicity IC50, HG-3
Experimental: as §1, §2

SK-MM-1 = test: In vitro cytotoxicity, SK-MM-1 (Plasma Cell Leukemia); type: cell-based; conditions: Homo sapiens, 72 h, read-out: Cytotoxicity IC50, SK-MM-1
Experimental: as §1, §2

Toledo = test: In vitro cytotoxicity, Toledo (Diffuse Large B Cell Lymphoma); type: cell-based; conditions: Homo sapiens, 72 h
Experimental: as §1, §2

SC-1 = test: In vitro cytotoxicity, SC-1 (B cell Lymphoma); type: cell-based; conditions: Homo sapiens, read-out: Cytotoxicity IC50, SC-1
Experimental: as §1, §2

SUP-T1 = test: In vitro cytotoxicity, SUP-T1 (T cell Lymphoma); type: cell-based; conditions: Homo sapiens, SUP-T1, 72 h, read-out: Cytotoxicity IC50, SUP-T1
Experimental: as §1, §2

RPMI-8226 = test: In vitro cytotoxicity, RPMI-8226 (Multiple Myeloma, resistant); type: cell-based; conditions: Homo sapiens, read-out: Cytotoxicity IC50, RPMI-8226
Experimental: as §1, §2

DERL-2 = test: In vitro cytotoxicity, DERL-2 (T cell Lymphoma); type: cell-based; conditions: Homo sapiens, 72 h, read-out: Cytotoxicity IC50, DERL-2
Experimental: as §1, §2

[1] = In vitro cytotoxicity, human peripheral blood mononuclear cells; type: cell-based; conditions: CellTiter-Glo 2.0, stimulated with PHA-M and IL-2, read-out: Cytotoxicity IC50, hPBMC
Experimental: as §1, §2

U937 = test: In vitro cytotoxicity, U937 (Histiocytic Lymphoma); type: cell-based; conditions: Homo sapiens, read-out: Cytotoxicity IC50, U937
Experimental: as §1, §2

[2] = tested on: DNA prepared from MM.1S cells (nuclear HPRT and mitochondrial DNA); test: Direct DNA damage, PCR amplification of treated DNA (HPRT and mtDNA primers); type: biochemical, human; conditions: 0.25 μM compound, 30 minutes, 37° C., 1 μg DNA
Experimental: Method: DNA was prepared from MM.1S cells by QIAGEN genomic tip 20/G according to protocol described in Furda et al., Methods Mol Biol, 2012. 1 μg of DNA was treated with 0.25 μM compound for 30 minutes at 37° C. DMSO was used as control treatment. 20 ng of the treated DNA was PCR amplified using Phusion Hot Start II High Fidelity PCR Master Mix (Thermo Scientific) and primers directed to either HPRT or primers directed to mitochondrial DNA (mtDNA) was used, generating 10.4 or 8.9 kb fragments, respectively. The PCR reactions were separated on a 1% agarose gel and visualized by ChemiDoc™ MP Imaging System (BioRad). Example compounds 1, 2 and 38 were investigated, as were compounds 18 and 20, which are metabolites of compound 1. They were compared with bendamustine, melphalan and DMSO control. The results for compounds 1, 2, 18 and 20 with the HPRT primers are shown in FIG. 4(A); the results with the mtDNA primers are shown in FIG. 4(B).

EJM = test: In vitro cytotoxicity, EJM (Multiple Myeloma); type: cell-based; conditions: Homo sapiens, 72 h
Experimental: as §1, §2

OPM-2 = test: In vitro cytotoxicity, OPM-2 (Multiple Myeloma); type: cell-based; conditions: Homo sapiens, read-out: Cytotoxicity IC50, OPM-2
Experimental: as §1, §2

AMO-1 = test: In vitro cytotoxicity, AMO-1 (Multiple Myeloma); type: cell-based; conditions: Homo sapiens, read-out: Cytotoxicity IC50, AMO-1
Experimental: as §1, §2

U266 = test: In vitro cytotoxicity, U266 (Multiple Myeloma); type: cell-based; conditions: Homo sapiens, read-out: Cytotoxicity IC50, U266
Experimental: as §1, §2

[3] = In vitro cytotoxicity, BJ fibroblasts (normal cells); type: cell-based; conditions: human, CellTiter-Glo 2.0
Experimental: as §1, §2

KMS-12-BM = test: In vitro cytotoxicity, KMS-12-BM (Multiple Myeloma); type: cell-based; conditions: Homo sapiens, 72 h
Experimental: as §1, §2

[4] = read-out: Cytotoxicity IC50, MM.1S
[5] = read-out: Cytotoxicity IC50, Toledo
[6] = CellTiter-Glo 2.0, read-out: Cytotoxicity IC50, EJM
[7] = RPMI-8226, 72 h, CellTiter-Glo 2.0
[8] = CellTiter-Glo 2.0, read-out: Cytotoxicity IC50, KMS-12-BM

Compound	IC50 (DOHH-2; DOHH-2, 72 h) [µM]	IC50 (MM.1S cells; [4]) [µM]	IC50 (MM.1S cells; read-out: MM.1S IC50) [µM]	IC50 (SU-DHL-8; SU-DHL-8, 72 h) [µM]	IC50 (HG-3; HG-3, 72 h) [µM]	IC50 (SK-MM-1) [µM]	IC50 (Toledo; [5]) [µM]	IC50 (SC-1; SC-1, 72 h) [µM]	IC50 (SUP-T1) [µM]	IC50 (RPMI-8226; RPMI-8226, 72 h) [µM]	IC50 (DERL-2) [µM]	IC50 at 72 h [1] [µM]	IC50 (U937; U-937, 72 h) [µM]	IC50 at 72 h [3] [µM]	IC50 (EJM; [6]) [µM]	IC50 (OPM-2; OPM-2, 72 h, CellTiter-Glo 2.0) [µM]	IC50 (SC-1; SC-1, 72 h, CellTiter-Glo 2.0) [µM]	IC50 (AMO-1; AMO1, 72 h, CellTiter-Glo 2.0) [µM]	IC50 (RPMI-8226; [7]) [µM]	IC50 (U266; U-266, 72 h, CellTiter-Glo 2.0) [µM]	also measured
CCOC(=O)[C@H](Cc1ccc(F)cc1)NC(=O)[C@@H](N)CCc1nc2cc(N(CCCl)CCCl)ccc2n1C [Example 2, Ethyl (2S)-2-[[(2S)-2-amino-4-[5-[bis(2-chloroethyl)amino]-1-methyl-benzimidazol-2-yl]butanoyl]amino]-3-(4-fluorophenyl)propanoate]	0.0053	0.0078	0.0078	0.0204	0.0257	0.0383	0.0066	0.021	0.0178	0.0415	0.0078	0.0075	0.0142								DNA damage on nuclear and mitochondrial DNA (PCR band) [2]: strong DNA damaging effect
CCOC(=O)[C@H](Cc1nc2cc(N(CCCl)CCCl)ccc2n1C)NC(=O)[C@@H](N)CC(C)C [Example 10, Ethyl (2S)-2-[[(2S)-2-amino-4-methyl-pentanoyl]amino]-3-[5-[bis(2-chloroethyl)amino]-1-methyl-benzimidazol-2-yl]propanoate]	0.0639	0.0192	0.0192	0.0221	0.0713	0.0624	0.0085	0.169	0.0356	0.335	0.0226	0.0264	0.0194								
CCOC(=O)[C@H](CC(C)C)NC(=O)[C@@H](N)CCc1nc2cc(N(CCCl)CCCl)ccc2n1-c1ccccc1 [Example 13, Ethyl (2S)-2-[[(2S)-2-amino-4-[5-[bis(2-chloroethyl)amino]-1-phenyl-benzimidazol-2-yl]butanoyl]amino]-4-methyl-pentanoate]		0.049	0.049					0.134		1.72				> 2							IC50 (EJM; read-out: Cytotoxicity IC50, EJM): 0.356 µM; IC50 (OPM-2; OPM-2, 72 h): 2.11 µM; IC50 (AMO-1; AMO1, 72 h): 0.965 µM; IC50 (U266; U-266, 72 h): 0.4 µM; IC50 (KMS-12-BM; read-out: Cytotoxicity IC50, KMS-12-BM): 0.137 µM
CC(C)C[C@H](NC(=O)[C@@H](N)CCc1nc2cc(N(CCCl)CCCl)ccc2n1C)C(=O)N(C)C [Example 30, (2S)-2-[[(2S)-2-Amino-4-[5-[bis(2-chloroethyl)amino]-1-methyl-benzimidazol-2-yl]butanoyl]amino]-N,N,4-trimethyl-pentanamide]		0.0397	0.0397											> 2	0.173	0.322	0.0537	0.653	0.492	0.131	IC50 (KMS-12-BM; [8]): 0.045 µM
CCOC(=O)[C@H](Cc1ccc(F)cc1)NC(=O)[C@H](CCc1nc2cc(N(CCCl)CCCl)ccc2n1C)NC(C)=O [Example 34, Ethyl (2S)-2-[[(2S)-2-acetamido-4-[5-[bis(2-chloroethyl)amino]-1-methyl-benzimidazol-2-yl]butanoyl]amino]-3-(4-fluorophenyl)propanoate]		0.0683	0.0683											> 2	0.637	0.961	1.06	0.758	1.45	0.266	IC50 (DOHH-2; DOHH-2, 72 h, CellTiter-Glo 2.0): 0.543 µM; IC50 (SU-DHL-8; SU-DHL-8, 72 h, CellTiter-Glo 2.0): 0.202 µM; IC50 (HG-3; HG-3, 72 h, CellTiter-Glo 2.0): 0.888 µM; IC50 (SK-MM-1; CellTiter-Glo 2.0): 0.604 µM; IC50 (Toledo; CellTiter-Glo 2.0, read-out: Cytotoxicity IC50, Toledo): 0.328 µM; IC50 (U937; U-937, 72 h, CellTiter-Glo 2.0): 0.397 µM; IC50 (KMS-12-BM; [8]): 0.105 µM
